# Results reported in patent US6849639B2, “Integrin inhibitors and their methods of use” (Amgen Inc., priority 1999, dated 2005).
# Structures can show the parent of a compound that is named as a salt.
row,Compound,melting point
1,"O=C(O)CC(NC(=O)C1CC(=O)N(c2cccc(NC(=S)NCc3ccccc3)c2)C1)c1cccnc1 (centres unmarked) (as salt: sodium) [Example 20, 3-({5-oxo-1-(3-({(benzylamino)thioxomethyl}amino)phenyl)pyrrolidin-3-yl}carbonylamino)-3-(3-pyridyl)propanoic acid, sodium salt]",230 °C (dec.)
2,"O=C(O)CC(NC(=O)C1CC(=O)N(c2cccc(NC(=S)NCc3ccc(F)cc3)c2)C1)c1cccnc1 (centres unmarked) (as salt: sodium) [Example 21, 3-((1-{3-(({((4-fluorophenyl)methyl)amino}thioxomethyl)amino)phenyl}-5-oxopyrrolidin-3-yl)carbonylamino)-3-(3-pyridyl)propanoic acid, sodium salt]",230 °C (dec.)
3,"O=C(O)CC(NC(=O)C1CC(=O)N(c2cccc(NC(=S)NCc3ccco3)c2)C1)c1cccnc1 (centres unmarked) (as salt: sodium) [Example 22, 3-({1-(3-({((2-furylmethyl)amino)thioxomethyl}amino)phenyl)-5-oxopyrrolidin-3-yl}carbonylamino)-3-(3-pyridyl)propanoic acid, sodium salt]",240 °C (dec.)
4,"CC(C)CCNC(=S)Nc1cccc(N2CC(C(=O)NC(CC(=O)O)c3cccnc3)CC2=O)c1 (centres unmarked) (as salt: sodium) [Example 23, 3-({1-(3-({((3-methylbutyl)amino)thiooxomethyl}amino)phenyl)-5-oxopyrroidin-3-yl}carbonylamino)-3-(3-pyridyl)propanoic acid, sodium salt]",250 °C (dec.)
5,"CCCCNC(=S)Nc1cccc(N2CC(C(=O)NC(CC(=O)O)c3cccnc3)CC2=O)c1 (centres unmarked) (as salt: sodium) [Example 24, 3-{(1-(3-{((butylamino)thioxomethyl)amino}phenyl)-5-oxopyrrolidin-3-yl)carbonylamino}-3-(3-pyridyl)propanoic acid, sodium salt]",235 °C (dec.)
